Values after ≈ are worked out from the molar mass of the structure shown.
Experiments:
[1] = system: VRE (Vancomycin-resistant E. faecium); assay: MIC, Gram-positive panel; assay type: cell-based
M. abscessus = assay: broth microdilution, A570 readout, non-tuberculosis mycobacteria; assay type: cell-based
Micrococcus luteus = conditions: cited from earlier work
[2] = system: Staphylococcus aureus strains (FDA209P, ATCC6538P, KB199); conditions: three Staphylococcus aureus strains (FDA209P, ATCC6538P, KB199); cited from earlier work
human ThyA (HsThyA) = human ThyA (HsThyA) (Homo sapiens, UniProt P04818); assay: cell-free ThyA and ThyX enzyme inhibition assay; assay type: biochemical; conditions: purified HsThyA, inhibitor 13 μM, compared to positive control 1843U89
Chain of human ThyA (HsThyA) (P04818 whole entry): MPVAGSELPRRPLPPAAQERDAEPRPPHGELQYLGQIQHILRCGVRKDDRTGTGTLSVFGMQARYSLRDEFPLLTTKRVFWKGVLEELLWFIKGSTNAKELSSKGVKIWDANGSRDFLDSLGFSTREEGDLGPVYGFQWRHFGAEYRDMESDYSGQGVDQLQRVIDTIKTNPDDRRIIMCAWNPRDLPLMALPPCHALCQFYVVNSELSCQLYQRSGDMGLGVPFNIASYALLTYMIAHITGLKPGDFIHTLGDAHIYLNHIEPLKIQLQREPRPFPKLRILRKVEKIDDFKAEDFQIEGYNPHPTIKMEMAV

[3] = in vivo tolerance assessment, oral gavage; parameters: species or system female BALB/c mice; conditions: 100 mg/kg daily by oral gavage for 5 days, uninfected mice
[4] = system: Streptococcus faecium IFO3181; conditions: cited from earlier work
B. thuringiensis = assay: MIC, Gram-positive panel; assay type: cell-based
P. mirabilis = assay: MIC, Gram-negative panel; assay type: cell-based
M. smegmatis = assay: broth microdilution, A570 readout, non-tuberculosis mycobacteria; assay type: cell-based
M. kansasii = assay: as above; assay type: cell-based
[5] = liver microsome stability; assay type: in vitro ADME; conditions: 1 μM, 30 min, 0.5 mg/mL mouse liver microsomes
E. cloacae = assay: MIC, Gram-negative panel; assay type: cell-based
K. pneumoniae = assay: MIC, Gram-negative panel; assay type: cell-based
B. cereus 10987 = assay: MIC, Gram-positive panel; assay type: cell-based
B. cereus 14579 = assay: MIC, Gram-positive panel; assay type: cell-based
E. faecium = assay: MIC, Gram-positive panel; assay type: cell-based
A. baumannii = assay: MIC, Gram-negative panel; assay type: cell-based
M. bovis BCG = assay type: cell-based
E. faecalis = assay: MIC, Gram-positive panel; assay type: cell-based
[6] = 100 mg/kg intraperitoneally; deposited solid residues; cited from earlier work
M. marinum = assay: broth microdilution, A570 readout, non-tuberculosis mycobacteria; assay type: cell-based
[7] = previous study ref 18; cited from earlier work
S. pyogenes = assay: MIC, Gram-positive panel; assay type: cell-based
M. tuberculosis [8] = assay: LORA MBC99, hypoxic; assay type: cell-based, Mycobacterium tuberculosis; conditions: hypoxic conditions (LORA)
B. subtilis = assay: MIC, Gram-positive panel; assay type: cell-based
P. aeruginosa = assay: MIC, Gram-negative panel; assay type: cell-based
Caco-2 = Caco-2 bidirectional permeability; assay type: in vitro ADME; conditions: Caco-2, 5 μM
MtThyX = MtThyX (Mycobacterium tuberculosis, UniProt P9WG57); assay: cell-free ThyA and ThyX enzyme inhibition assay; assay type: biochemical, M. tuberculosis
Chain of MtThyX (P9WG57 whole entry): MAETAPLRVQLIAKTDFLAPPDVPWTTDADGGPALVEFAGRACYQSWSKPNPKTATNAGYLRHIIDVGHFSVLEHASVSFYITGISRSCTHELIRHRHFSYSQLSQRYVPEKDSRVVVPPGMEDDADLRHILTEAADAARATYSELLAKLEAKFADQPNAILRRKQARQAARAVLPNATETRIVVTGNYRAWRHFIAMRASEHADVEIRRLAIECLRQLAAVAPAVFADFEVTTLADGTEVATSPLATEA

[9] = liver microsome stability; assay type: in vitro ADME; conditions: 1 μM, 30 min, 0.5 mg/mL human liver microsomes
E. coli = assay: MIC, Gram-negative panel; assay type: cell-based
solubility = assay type: physicochemical; conditions: current study
M. avium = assay: broth microdilution, A570 readout, non-tuberculosis mycobacteria; assay type: cell-based
M. chelonae = assay: as above; assay type: cell-based
M. tuberculosis [10] = assay type: cell-based
[11] = molecular target: M. tuberculosis ThyA (MtThyA) (Mycobacterium tuberculosis, UniProt P9WFR9); assay: cell-free ThyA and ThyX enzyme inhibition assay; assay type: biochemical
Chain of M. tuberculosis ThyA (MtThyA) (P9WFR9 whole entry): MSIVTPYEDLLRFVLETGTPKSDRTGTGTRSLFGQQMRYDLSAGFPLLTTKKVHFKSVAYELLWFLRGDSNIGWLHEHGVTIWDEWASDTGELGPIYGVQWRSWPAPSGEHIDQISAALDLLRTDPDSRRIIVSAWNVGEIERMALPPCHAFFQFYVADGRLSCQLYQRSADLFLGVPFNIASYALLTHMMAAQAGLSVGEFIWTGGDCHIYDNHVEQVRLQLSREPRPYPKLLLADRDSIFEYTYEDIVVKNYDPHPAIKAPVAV

[12] = molecular target: thymidylate synthase (E. faecium); conditions: competitive with coenzyme 5,10-methylenetetrahydrofolate; cited from earlier work
[13] = system: nonreplicating M. tuberculosis H37Rv; assay type: cell-based, Mycobacterium tuberculosis
S. pneumoniae = assay: MIC, Gram-positive panel; assay type: cell-based
B. anthracis = assay type: cell-based
M. tuberculosis H37Rv = assay: microplate Alamar Blue assay; assay type: cell-based; conditions: Mycobacterium tuberculosis

## CCCc1c2c([nH]c(=O)c1C)C(=O)c1[nH]c(=O)c(C)c(CCC)c1C2=O [Compound 3, diazaquinomycin A]
[1]
  MIC: 32 µg/mL (≈ 90.3 µM)
M. abscessus
  MIC: >7.5 µg/mL
Micrococcus luteus
  MIC: 1.13 µg/mL (≈ 3.19 µM)
[2]
  MIC: 6.25 µg/mL (≈ 17.6 µM)
Human ThyA (HsThyA)
  inhibition of enzyme activity: did not significantly inhibit
[3]
  tolerance in vivo: well tolerated
[4]
  MIC: 6.25 µg/mL (≈ 17.6 µM)
B. thuringiensis
  MIC: 25 µg/mL (≈ 70.5 µM)
P. mirabilis
  MIC: 64 µg/mL (≈ 181 µM)
M. smegmatis
  MIC: 4.56 µg/mL (≈ 12.9 µM)
M. kansasii
  MIC: >7.5 µg/mL
[5]
  parent compound remaining: 98%
E. cloacae
  MIC: 64 µg/mL (≈ 181 µM)
K. pneumoniae
  MIC: 128 µg/mL (≈ 361 µM)
B. cereus 10987
  MIC: 12.5 µg/mL (≈ 35.3 µM)
B. cereus 14579
  MIC: 25 µg/mL (≈ 70.5 µM)
E. faecium
  MIC: 8 µg/mL (≈ 22.6 µM)
A. baumannii
  MIC: 128 µg/mL (≈ 361 µM)
M. bovis BCG
  MIC: 0.12 µg/mL (≈ 0.339 µM)
E. faecalis
  MIC: 8 µg/mL (≈ 22.6 µM)
[6]
  toxicity in vivo: acute toxicity
M. marinum
  MIC: >7.5 µg/mL
[7]
  maximum room temperature concentration in water: 0.15 µg/mL
S. pyogenes
  MIC: >25 µg/mL
M. tuberculosis [8]
  MBC99: did not exhibit a significant MBC99
B. subtilis
  MIC: 100 µg/mL (≈ 282 µM)
P. aeruginosa
  MIC: 128 µg/mL (≈ 361 µM)
Caco-2
  efflux ratio: 0.2
  permeability (from apical to basolateral): 4.4 ×10⁻⁶ cm/s
  permeability (from basolateral to apical): 0.9 ×10⁻⁶ cm/s
  recovery (from apical to basolateral): 82%
  recovery (from basolateral to apical): 98%
MtThyX
  inhibition of enzyme activity: did not significantly inhibit
[9]
  parent compound remaining: 96%
E. coli
  MIC: 128 µg/mL (≈ 361 µM)
solubility
  maximum room temperature concentration in DMSO: 600 µg/mL
M. avium
  MIC: 3.85 µg/mL (≈ 10.9 µM)
M. chelonae
  MIC: >7.5 µg/mL
M. tuberculosis [10]
  reversal of antibiotic properties by thymidine: no reversal
[11]
  inhibition of enzyme activity: did not significantly inhibit
[12]
  Ki: 36 µM
[13]
  MIC: 0.72 µg/mL (≈ 2.03 µM)
S. pneumoniae
  MIC: >10 µg/mL
B. anthracis
  MIC: 6.25 µg/mL (≈ 17.6 µM)

## O=[N+]([O-])c1cn2c(n1)OC[C@@H](OCc1ccc(OC(F)(F)F)cc1)C2 [PA824]
M. tuberculosis H37Rv
  MIC: 0.01 µg/mL (≈ 0.0278 µM)

— article PMC4648258 (ACS infectious diseases, 2015)
